Source: PMC7993833, “EDP-938, a novel nucleoprotein inhibitor of respiratory syncytial virus, demonstrates potent antiviral activities in vitro and in a non-human primate model” (PLoS Pathogens, 2021)

Legend:
RSV-A Long [1] = test: CPE assay (ATPlite), RSV-A Long in HEp-2 cells; assay type: cell-based; conditions: human respiratory syncytial virus, 120 h, HEp-2, RSV-A Long MOI 0.1, 5 days
RSV = test: Single-round synchronized infection time-of-addition, RT-qPCR endpoint; assay type: cell-based, respiratory syncytial virus; conditions: HEp-2; MOI 3; cold-synchronized; 2x or 20x EC50; added 0-8 hpi; RT-qPCR at 24 hpi
Method: In order to help determine which step of the viral life cycle EDP-938 blocks multiple in vitro time-of-addition studies were performed. In the first study, EDP-938 was administered to cells infected with RSV-A Long at a MOI of 0.1 at 2 hours pre-infection (-2) or 2, 6, or 24 hours post-infection (hpi), and viral CPE evaluated 5 days later. […] A second time-of-addition study explored the ability of EDP-938 to protect not just a population experiencing a spreading infection, but individual cells already infected with RSV. Using a MOI of 3, which infects approximately 95% of all cells, virus was cold-adsorbed to the cells for 1 hour to synchronize infection before transfer to 37°C to induce fusion (marking the 0 hpi time point). Compound was added at times indicated and a 24 hpi RT-qPCR endpoint was employed to constrain viral replication cycle to a single complete cycle.
For single round infection synchronized infection 25,000 HEp-2 cpw seeded 1-day pre-infection. Plates brought to 4°C, viral infection at 3 MOI calculated for 30,000 cpw incubated at 4°C 1hr. Compound added to 0h plate and plates moved to 37°C. Compound added at 2h, 4h, 6h, and 8h post-incubation (when plates moved to 37°C) to appropriate plates. 24 hpi viral copies measured with RT-qPCR as described above.

RSV-B clinical isolates = test: RSV Virospot reduction assay (ViroClinics), RSV-B isolates from the Netherlands; assay type: cell-based; conditions: human respiratory syncytial virus, 10 RSV-B strains from the Netherlands
Method: To further expand testing against clinical isolates, the compound was assayed against a panel of 10 RSV-A and 10 RSV-B strains mainly isolated from children of age 2–200 weeks in the Netherlands.
RSV clinical isolates were obtained from Baylor University and Medical College of Wisconsin. MOI of 0.1 used for all clinical isolates except RSV-A 629-9-2 (0.01) and RSV-B 629-24/2007 (0.0044) due to low titer. Virospot reduction assay was run by ViroClinics (Rotterdam, the Netherlands) against 20 additional RSV clinical isolates.

RSV-A Long [2] = test: RT-qPCR assay, RSV-A Long in BHK cells; assay type: cell-based; conditions: human respiratory syncytial virus
RSV-B VR-955 [3] = test: RT-qPCR assay, RSV-B VR-955 in primary HBECs; assay type: cell-based; conditions: human respiratory syncytial virus, primary HBEC
[4] = test system: RSV-B VR-955 EDP-938 resistant populations; test: Susceptibility of EDP-938 resistant RSV-B VR-955 populations; assay type: cell-based, respiratory syncytial virus
HEK-293 cells = test: Cytotoxicity (ATPlite) in HEK-293 cells; assay type: cell-based, human; conditions: at up to 50 μM, 3 days
Method: (§1) HEp-2, A549, and CHO cells were seeded at 3,000 cpw in their respective growth medium. CHO growth medium used was RPMI medium 1640 with 10% FBS, 1% P/S, 1% GlutaMAX. HEK-293 cells seeded at 10,000 cpw in DMEM growth medium. Undifferentiated HBECs were seeded in collagen-coated 96-well plates at 7,500 cpw in appropriate growth medium. Compound added and incubated for 3 days (4 days for HBECs) as described above. Plates read with ATPlite and CC50 calculated as EC50s as described above. SI = CC50/EC50 within a cell line.

RSV-B VR-955 [5] = test: RT-qPCR assay, RSV-B VR-955 in A549 cells; assay type: cell-based; conditions: human respiratory syncytial virus
Method: (§2) HEp-2, Vero, and BHK were seeded at 8,000 cells per well (cpw) in growth medium (Dulbecco’s Modified Eagle Medium (DMEM) with 1% GlutaMAX, 1% Penicillin/Streptomycin (P/S), 1% Non-Essential Amino Acids (NEAA), 10% Fetal Bovine Serum (FBS)) or (Minimum Essential Medium (MEM) with 10% FBS, 1% NEAA, 1% P/S) or (Eagle’s Minimum Essential Medium with L-Glutamine, with 10% FBS, 1% P/S) respectively. A549 seeded at 3,000 cpw in F-12K Kaighn’s Modification nutrient mixture with 10% FBS, 1% NEAA, 1% P/S. Cells seeded at time of infection in 96-well plates, final well volume 100μL. Compounds suspended in DMSO, serially diluted and added to wells at 0.5% final DMSO concentration. Viral stocks stabilized with 25% sucrose, previously titered using plaque assay, were added at desired MOI. Sucrose added to cells-only control wells to match percent added with virus. Unless otherwise noted, RSV-A strains were tested at 0.1 MOI and incubated for 5 days in a 37°C, 5% CO2 humidified incubator, and RSV-B at 0.5 MOI for 6 days. Cytopathic effect (CPE) determined using ATPlite (Perkin Elmer) measured with Envision luminometer. For RT-qPCR, RNA was extracted from whole well using Ambion RNAqueous-96 Automated Kit, and RT-qPCR run using Applied Biosystems TaqMan RNA-to-CT 1-Step Kit. […] All EC50s were calculated using the XLFit four-parameter logistic model 200 in Microsoft Excel.

[6] = test system: recombinant RSV A2-line19F, N protein mutants; test: microbe, parasite or virus in culture; conditions: human respiratory syncytial virus
RSV-A2 = test: RT-qPCR assay, RSV-A2 in HEp-2 cells; assay type: cell-based; conditions: human respiratory syncytial virus
Method: as §2

RSV-A Long [7] = test: RT-qPCR assay, RSV-A Long in primary cotton rat lung cells; assay type: cell-based; conditions: human respiratory syncytial virus, 120 h, RSV-A Long MOI 0.1, 5 days
HEp-2 cells = test: Cytotoxicity (ATPlite) in HEp-2 cells; assay type: cell-based, human; conditions: at up to 50 μM, 3 days
Method: as §1

O=C1Nc2ccccc2C(c2ccccc2)=N[C@@H]1Nc1nnc(-c2ncc(C(F)(F)F)cc2N2CCOCC2)o1 [EDP-938]
EC90 (RSV-A Long [1]; CPE): 60 ± 18 nM | EC50 (RSV-A Long [1]; CPE (ATPlite), read-out: EC50): 52 ± 12 nM | inhibition of viral RNA production by time of addition (RSV): inhibited RNA production at all time points up to 8 hpi | EC50 (RSV-B clinical isolates): 51 nM | EC50 (RSV-A Long [2]): 16800 nM | EC50 (RSV-B VR-955 [3]; 168 h, RSV-B VR-955 MOI 0.1, 7 days): 64 ± 30 nM | EC90 (RSV-B VR-955 [3]; RSV-B VR-955): 74 ± 33 nM | EC50 Fold Change vs. WT ([4]; RSV-B VR-955 Population 1, N: M109K, L139Q (dual WT/mutant population)): 42 fold | EC50 Fold Change vs. WT ([4]; RSV-B VR-955 Population 2, N: M109T): 6.6 fold | EC50 Fold Change vs. WT ([4]; RSV-B VR-955 Wild-Type): 1 fold | cytotoxicity (HEK-293 cells): no significant cytotoxicity | EC50 (RSV-B VR-955 [5]): 83 ± 38 nM | EC90 (RSV-B VR-955 [5]): 170 ± 53 nM | EC50 ([6]; HEp-2, recombinant RSV N K107N): 52 ± 6 nM | EC50 ([6]; HEp-2, recombinant RSV N K136R): 125 ± 20 nM | EC50 ([6]; HEp-2, recombinant RSV N L139I): 326 ± 83 nM | EC50 ([6]; HEp-2, recombinant RSV N M109I): 70 ± 26 nM | EC50 ([6]; HEp-2, recombinant RSV N M109K): 1220 nM | EC50 ([6]; HEp-2, recombinant RSV N M109K mutant): ~1200 nM | EC50 ([6]; HEp-2, recombinant RSV N M109T): 244 ± 61 nM | EC50 ([6]; HEp-2, recombinant RSV N N105D): 60 ± 44 nM | EC50 ([6]; HEp-2, recombinant RSV N S134T): 99 ± 26 nM | EC50 ([6]; HEp-2, recombinant RSV N V90A): 46 ± 29 nM | EC50 ([6]; HEp-2, recombinant RSV Wild-type (WT), HEp2): 45 ± 21 nM | EC50 (RSV-A2): 59 ± 18 nM | EC90 (RSV-A2): 70 ± 30 nM | EC50 (RSV-A Long [7]): 10300 nM | cytotoxicity (HEp-2 cells): no significant cytotoxicity
